In article PMC11303761 (Nature Communications, 2024):

How the values were obtained:
Type in all cases: cell-based
β1AR [1] = biological target: T1, β1AR (Homo sapiens, UniProt P08588); experiment: cAMP production in β1-HEK293 cells; conditions: 100 µM
β1AR [2] = biological target: T1, β1AR; experiment: β-arrestin2 recruitment; conditions: β1-HTLA cells
β2AR = β2AR (Homo sapiens, UniProt P07550); experiment: β-arrestin2 recruitment; conditions: β2-Tango HTLA; agonist alone or with 100 µM PAGln (Fig 2A, 2C)
Chain of β2AR (P07550 whole entry): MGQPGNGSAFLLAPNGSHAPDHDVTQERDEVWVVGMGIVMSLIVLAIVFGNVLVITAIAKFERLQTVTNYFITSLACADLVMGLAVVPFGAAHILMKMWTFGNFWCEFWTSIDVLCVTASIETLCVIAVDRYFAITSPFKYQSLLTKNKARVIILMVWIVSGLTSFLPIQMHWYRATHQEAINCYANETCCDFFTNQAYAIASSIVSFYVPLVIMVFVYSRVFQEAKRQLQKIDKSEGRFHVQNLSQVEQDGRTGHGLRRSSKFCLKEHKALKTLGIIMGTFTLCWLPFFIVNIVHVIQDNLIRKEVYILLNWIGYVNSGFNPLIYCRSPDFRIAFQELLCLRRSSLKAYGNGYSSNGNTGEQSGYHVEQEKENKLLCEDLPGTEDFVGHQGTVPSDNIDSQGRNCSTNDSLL

T1 sequence (P08588 whole entry): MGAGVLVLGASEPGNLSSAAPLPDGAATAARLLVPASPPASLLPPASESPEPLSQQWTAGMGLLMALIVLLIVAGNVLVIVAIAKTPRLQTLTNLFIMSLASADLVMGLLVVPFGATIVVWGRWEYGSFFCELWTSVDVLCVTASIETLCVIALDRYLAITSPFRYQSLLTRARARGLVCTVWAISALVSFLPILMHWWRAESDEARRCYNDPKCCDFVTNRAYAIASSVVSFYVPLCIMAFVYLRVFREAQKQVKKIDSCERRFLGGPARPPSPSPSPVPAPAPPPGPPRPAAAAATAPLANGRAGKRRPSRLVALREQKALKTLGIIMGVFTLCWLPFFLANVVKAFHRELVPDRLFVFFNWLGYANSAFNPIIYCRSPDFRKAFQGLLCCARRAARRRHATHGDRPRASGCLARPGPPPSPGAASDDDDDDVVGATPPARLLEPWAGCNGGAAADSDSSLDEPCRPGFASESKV

## N[C@@H](Cc1ccccc1)C(=O)O [Phe, phenylalanine]
β1AR [1]
  cAMP production by compound alone: failed to induce cAMP production

## NC(=O)CC[C@H](NC(=O)Cc1ccccc1)C(=O)O [PAGln, Phenylacetylglutamine]
β1AR [1]
  cAMP production by compound alone: failed to induce cAMP production
β1AR [2]
  effect of PAGln on ISO- or NE-induced β-arrestin2 recruitment: failed to show any significant effect

## NC[C@H](O)c1ccc(O)c(O)c1 [NE, norepinephrine]
β2AR
  Bmax of β-arrestin2 recruitment: 3137 RLU
